Key:
[1] = tested on: adult T-cell leukemia/lymphoma (ATLL); test: case of refractory ATLL treated in clinical trial NCT03678883; assay type: in vivo, human
Source text: This EXAMPLE discloses a case of adult T-cell leukemia/lymphoma (ATLL) treated with elraglusib. A patient developed diffuse lymphadenopathy. […] CSF was positive for ATLL involvement. Twenty-two months after the diagnosis of ATLL was confirmed, as a fourth-line therapy in the presence of actively progressing disease, the patient was enrolled a Phase I/II study investigating the safety and efficacy of elraglusib, a selective small molecule inhibitor of glycogen synthase kinase-3 beta (GSK-3β) as monotherapy or in combination with chemotherapy in refractory solid tumors and hematological malignancies (NCT03678883). The patient started treatment with single-agent elraglusib (12.37 mg/kg IV twice weekly: 21-day cycle). […] This stability was confirmed on CT imaging after five and seven cycles of therapy.

NK-92 [2] = test: Western blot analysis; assay type: cell-based, human
Description: (§1) Western blot analysis. Cells were plated in a 6-well plate and incubated overnight before the spent media was replaced with drugged media. Drug treatment lasted for indicated durations. Protein was extracted using radioimmunoprecipitation (RIPA) assay buffer (Cat #R0278, Sigma-Aldrich, St. Louis, MO, USA) containing cOmplete™, Mini, EDTA-free Protease Inhibitor Cocktail (Cat #4693159001, Roche, Basel, Switzerland) from sub-confluent cells. Denaturing sample buffer was added, samples were boiled at 95° C. for ten minutes, and an equal amount of protein lysate was electrophoresed through NuPAGE™ 4 to 12%, bis-Tris, 1.5 mm, Mini Protein Gels (Invitrogen, Waltham, MA, USA) then transferred to PVDF membranes. The PVDF membrane was blocked with 5% non-fat milk (Sigma-Aldrich, St. Louis, MO, USA) in 1× TTBS. Primary antibodies were incubated with the transferred PVDF membrane in blocking buffer at 4° C. overnight. Secondary antibodies included Goat anti-Rabbit IgG (H+L) Secondary Antibody, HRP (Cat #31460, Invitrogen, Waltham, MA, USA), and Goat anti-Mouse IgG (H+L) Secondary Antibody, HRP (Cat #31430, Invitrogen, Waltham, MA, USA). The signal was detected using Pierce™ ECL Western Blotting Substrate (Cat #32106, Thermo Scientific, Waltham, MA, USA) and a Syngene Imaging System (RRID: SCR_015770).
Because of the differential impact of elraglusib on tumor and immune cells that the inventors observed via Western blot, the inventors compared the levels of another survival protein Mcl-1 in NK-92 natural killer cells.

MSS cell line CT-26 = test: syngeneic murine colon carcinoma BALB/c model, survival and tumor response; assay type: in vivo, mouse
Description: In vivo studies. […] Once tumor volume reached at least 100 mm^3, mice were randomly assigned to one of seven groups (12 mice/group): Control (isotype), elraglusib, elraglusib+Isotype, anti-PD-1, anti-PD-L1, elraglusib+anti-PD-1, and elraglusib+anti-PD-L1. All treatments were delivered by IP injection using the following dosing schedule: Isotype (70 mg/kg, twice a week), elraglusib (70 mg/kg, twice a week), anti-PD-1 (10 mg/kg, twice a week), anti-PD-L1 (10 mg/kg, twice a week). Treatment dosing was determined based on previous studies of elraglusib and anti-PD-1/anti-PD-L1. […] The treatment continued until mice developed signs of discomfort from excessive tumor growth. Mice were weighed once a week to monitor signs of drug toxicity. The length (L) and width (W) of the masses were measured three times per week with a digital caliper, and the tumor volume was calculated by applying the formula: 0.5LW2 Collection of whole blood and serum was performed by cardiac puncture and sent to Antech Diagnostics GLP (Morrisville, NC, USA) for blood cell count and chemistry tests, or in-house cytokine profiling. Tumors and organs were dissected and harvested for analysis by immunohistochemistry and flow cytometry.
In a syngeneic murine colon carcinoma BALB/c model using microsatellite stable cell line CT-26, the inventors compared isotype, elraglusib (70 mg/kg 2×/week), αPD-1 (10 mg/kg 2×/week), αPD-L1 (10 mg/kg 2×/week), elraglusib+αPD-1, and elraglusib+αPD-L1 treatment groups.
The inventors evaluated the potential for elraglusib to increase the efficacy of immune checkpoint blockade and utilized a syngeneic murine colon carcinoma BALB/c murine model using a MSS cell line CT-26 (FIG. 4A). Mice were randomly assigned to one of seven groups: isotype (N=12), elraglusib (N=12), elraglusib+isotype (N=12), anti-PD-1 (N=12), anti-PD-L1 (N=12), elraglusib+anti-PD-1 (N=12), and elraglusib+ anti-PD-L1 (N=12).

TALL-104 [3] = test: Western blot analysis; assay type: cell-based, human; details: as treatment duration increased (0-72 hours)
Description: as §1, with “Secondary antibodies included Goat anti-Rabbit IgG (H+L) Secondary Antibody, HRP (Cat #31460, Invitrogen, Waltham, MA, USA), and Goat anti-Mouse IgG (H+L) Secondary Antibody, HRP (Cat #31430, Invitrogen, Waltham, MA, USA).” left out
Elraglusib enhances immune cell effector function. the inventors next analyzed immune cell lines (TALL-104, NK-92) using western blot analysis.

TALL-104 [4] = test: Luminex cytokine profiling of cell culture supernatant; assay type: cell-based, human
Description: (§2) Collection of cell culture supernatants used in cytokine measurements. Cells were plated at 3.5×10^4 cells in a 48-well plate (Thermo Fisher Scientific, Waltham, MA, USA) in complete medium and incubated at 37° C. with 5% CO2. At twenty-four hours after plating, almost all the tumor cells were adherent to the bottom of the flask and the complete medium was replaced with the drug-containing medium. Subsequently, the culture supernatants were collected after forty-eight hours of incubation and were frozen at −80° C. until the measurement of cytokines was performed. On the day of analysis, samples were thawed and centrifuged to remove cellular debris.
(§3) Human cytokine profiling. Human cell line culture supernatants were analyzed using an R&D systems Human Premixed Multi-Analyte Kit (R&D Systems, Inc., Minneapolis, MN, USA) and a Luminex 200 (RRID: SCR_018025) Instrument (LX200-XPON-RUO, Luminex Corporation, Austin, TX, USA) according to the manufacturer's instructions. Sample levels of TNF-α, 4-1BB/TNFRSF9/CD137, IL-8/CXCL8, Ferritin, IFN-β, IL-10, CCL2/JE/MCP-1, VEGF, CXCL13/BLC/BCA-1, IFN-γ, CCL20/MIP-3 α, CCL3/MIP-1 α, CCL22/MDC, CCL4/MIP-1 β, Fas Ligand/TNFSF6, IL-17/1L-17A, IL-2, BAFF/BLyS/TNFSF13B, GM-CSF, CXCLS/ENA-78, TRANCE/TNFSF11/RANK L, CXCL9/MIG, G-CSF, IFN-γ R1/CD119, VEGFR3/Flt-4, C-Reactive Protein/CRP, CXCL11/I-TAC, IL-21, CXCL14/BRAK, IL-6, Fas/TNFRSF6/CD95, TRAIL R3/TNFRSF10C, IL-4, CCL5/RANTES, PD-L1/137-H1, CCL7/MCP-3/MARC, Chitinase 3-like 1, CXCL10/IP-10/CRG-2, IL-1 μ/IL-1F2, IL-7, Prolactin, CCL8/MCP-2, TRAIL R2/TNFRSF10B, M-CSF, IL-15, Granzyme B, IFN-α, TREM-1, IL-12/1L-23 p40, TRAIL/TNFSF10, CCL11/Eotaxin, and 1L-18/1L-1F4. Quantitative analysis with 6 standards and a minimum of 50 counts per bead region was used with the Luminex to generate analyte values reported as picograms/milliliter (pg/mL). Sample concentrations less than the lower limit of detection for each particular analyte were recoded as the lower limit value divided by 10. Sample concentrations above the upper limit of detection for a particular analyte were recoded as the upper limit of detection.
(§4) Saos-2 osteosarcoma and 93T449 liposarcoma cell lines were pretreated at IC50 with elraglusib. The cells were harvested for Western blot analysis after 48 hours of treatment. Both cancer cell lines as well as TALL-104 T-cells and NK-92 NK cells were treated with 0.5 μM elraglusib for twenty-four hours and harvested for Luminex cytokine profiling.
(§5) Because the previously observed non-canonical NF-κB pathway activation enhances the expression of immune cell chemotactic chemokines and cytokines, the inventors determine how elraglusib treatment impacts the immune cell secretome. TALL-104 and NK-92 cells were treated with 1 μM elraglusib for forty-eight hours before cell culture supernatant was collected for cytokine profile analysis.

NK-92 [5] = test: as above; assay type: cell-based, human
Description: as §2, §3, §4, §5

[6] = immune cells, cell line not given

With `Cn1cc(C2=C(c3coc4ccc(F)cc34)C(=O)NC2=O)c2cc3c(cc21)OCO3` [elraglusib] the tolerability ([1]; 12.37 mg/kg IV twice weekly) was “tolerated the treatment well without significant adverse effects”, the “sIL-2 r serum concentration” value ([1]; after nineteen cycles of treatment, 9,043 ng/ml one month before treatment) was 2,094 ng/ml and the “CT imaging response by RECIST Criteria” value ([1]; after ten cycles (seven months), 12.37 mg/kg IV twice weekly) was “partial response”. The CT imaging response ([1]; after two cycles, 12.37 mg/kg IV twice weekly, 21-day cycle) was “stable disease”, the “duration of sustained reduction of peripheral blood ATLL cells” value ([1]; elraglusib monotherapy) was “fifteen” and the “NF-κB-inducing kinase (NIK) expression” value (NK-92 [2]; [6]) was “increases”. For the same compound, the Survivin expression (NK-92 [2]; [6]) was “increases”, the Mcl-1 protein expression (NK-92 [2]; through the 72-hour endpoint) was “did not observe a significant decrease” and the “survival compared to the control” value (MSS cell line CT-26; N=12 per group) was “statistically significant improved survival”. For the same compound, the “hazard ratio for death (HR)” value (MSS cell line CT-26; compared to isotype control group) was 0.12, the median overall survival (MSS cell line CT-26; elraglusib 70 mg/kg 2×/week, αPD-1/αPD-L1 10 mg/kg 2×/week, isotype control group 16 d) was 19 days and the Bcl-2 expression (TALL-104 [3]) was “did not notice significant changes”. For the same compound, the NF-κB expression (TALL-104 [3]) was “did not notice significant changes”, the CXCL11 (TALL-104 [4]; 0.5 μM, twenty-four hours) was “increase” and the IL-18 (TALL-104 [4]; 0.5 μM, twenty-four hours) was “increased level”. The IFN-γ concentration (TALL-104 [4]; 1 μM, forty-eight hours) was “increases”, the TRAIL concentration (TALL-104 [4]; 1 μM, forty-eight hours) was “increases” and the “granzyme B concentration” value (TALL-104 [4]; 1 μM, forty-eight hours) was “increases”. For the same compound, the “IFN-γ in cell culture supernatants” value (TALL-104 [4]; twenty-four hours) was “significant increase”, the IL-8 chemokine (NK-92 [5]; 0.5 μM, twenty-four hours) was “increase” and the “soluble TRAIL (TRAIL/TNFSF10)” value (NK-92 [5]; 0.5 μM, twenty-four hours) was “increase”. For the same compound, the IFN-γ concentration (NK-92 [5]; 1 μM, forty-eight hours) was “increases”, the TRAIL concentration (NK-92 [5]; 1 μM, forty-eight hours) was “increases” and the “secreted granzyme B concentration” value (NK-92 [5]; 1 μM, forty-eight hours) was “decreases”. The “IFN-γ in cell culture supernatants” value (NK-92 [5]; twenty-four hours, effect smaller than in TALL-104) was “significant increase”.

— US20240041830A1, “CIRCULATING BIOMARKERS OF RESPONSE TO PD-1/PD-L1 BLOCKADE AND GSK-3 INHIBITION” (Brown University, priority 2022, published 2024)
